Experimental data taken from ChEMBL document CHEMBL3585314, “Initial development of a cytotoxic amino-seco-CBI warhead for delivery by prodrug systems” (Bioorg Med Chem, 2015).

What was measured:
LNCaP = assay: Cytotoxicity against human LNCAP cells assessed as inhibition of cell proliferation by MTS assay; assay type: functional, cell-based
Calf thymus DNA [1] = assay: Binding affinity to calf thymus DNA assessed as change in melting temperature at 6.9 DNA to compound ratio at pH 7.2 by spectrophotometric analysis; assay type: nucleic-acid assay; details: Bos taurus
L1210 [2] = assay: Cytotoxicity against mouse L1210 cells after 3 days by coulter counter analysis; assay type: functional, cell-based; details: L1210, 72 h
L1210 [3] = assay: Cytotoxicity against mouse L1210 cells after 24 hrs by MTT assay; assay type: functional, cell-based; details: L1210, 24 h
Calf thymus DNA [4] = assay: Binding affinity to calf thymus DNA assessed as change in melting temperature treated with (5-amino-1-(chloromethyl)-1H-benzo[e]indol-3(2H)-yl)(5-(2-(dimethylamino)ethoxy)-1H-indol-2-yl)methanone at 0.2 equiv. per base pair at pH 7 after 1 hr by spectrometric analysis; assay type: nucleic-acid assay; details: Bos taurus
L1210 [5] = assay: Cytotoxicity against mouse L1210 cells; assay type: functional, cell-based

CN(C)CCOc1ccc2[nH]c(C(=O)N3CC(CCl)c4c3cc(NC(=O)OC(C)(C)C)c3ccccc43)cc2c1 (configuration not stated)
IC50 (LNCaP): 218 nM

COc1c(O)c2c(c3cc(C(=O)N4CCc5c4c(O)c(OC)c4[nH]c(C(=O)N6C[C@H]7C[C@@]78C6=CC(=O)c6[nH]cc(C)c68)cc54)[nH]c13)CCN2C(N)=O [(+)-CC-1065]
ΔTm (Calf thymus DNA [1]): 31 °C
IC50 (L1210 [2]): 0.024 nM

COc1cc2[nH]c(C(=O)N3C[C@H]4C[C@@]45C3=CC(=O)c3[nH]c(C(=O)N4CCc6c4c(O)c(OC)c4[nH]c(C(=O)SC)cc64)cc35)cc2cc1O
IC50 (L1210 [3]): 0.005 nM

CN(C)CCOc1ccc2[nH]c(C(=O)N3CC(CCl)c4c3cc(N)c3ccccc43)cc2c1 (configuration not stated)
IC50 (LNCaP): 18 nM

CN(C)CCOc1ccc2[nH]c(C(=O)N3CC4CC45C3=CC(=N)c3ccccc35)cc2c1 (configuration not stated)
ΔTm (Calf thymus DNA [4]): 13 °C

COC(=O)c1cc2c([nH]1)C(=O)C=C1N(C(=O)c3cc4cc(OC)c(OC)c(OC)c4[nH]3)CC3CC123 (configuration not stated) [DUOCARMYCIN SA]
IC50 (L1210 [5]): 0.01 nM
